# Measurements from patent publication US8999358B2, “Aqueous insecticidal compositions and the use thereof for protecting lignocellulose-containing materials” (BASF Aktiengesellschaft, priority 2005, dated 2015).
# Tested on: wood-destroying soil-dwelling termites (Reticulitermes santonensis)
# Experiment: Laboratory termite resistance test of treated wood specimens (AWPA E1-97) after leaching according to DIN EN 84
# Assay type: in vivo
# Details: Test termite R. santonensis; Pinus spp. (Southern Yellow Pine) specimens 25x25x6 mm^3; AWPA E1-97, 4 weeks; α-cypermethrin concentration in wood giving score 10 to 9
# Protocol: The aqueous active ingredient composition according to the invention of Example 3 was diluted with water to three different active ingredient concentrations. For comparison purposes, the anionic dispersion D6, which is not in accordance with the invention, was studied, and α-cypermethrin was dissolved in acetone, and the solution was diluted with further acetone to give the active ingredient concentrations in question.
# To determine the limits of the efficacy of the composition according to the invention with regard to wood-destroying soil-dwelling termites (Reticulitermes santonensis), wood specimens of Pinus spp. with the dimensions 25×25×6 mm^3 (Southern Yellow Pine) were tested in accordance with the American test standard AWPA E1-97 (see, in this context, “Standard method for laboratory evaluation to determine resistance to subterranean termites”, American Wood-Preservers' Association, 2001) under constrained experimental conditions after leaching according to DIN EN 84: 1997-01 (see, in this context, “accelerated aging of treated timber before biological tests”, European standardization committee).
# The destruction of the timber caused by attack by the termites was registered after 4 weeks of testing by visually scoring the timber specimens as specified in AWPA E1-97. In addition, the mortality rate among the termites was estimated. […]
structure (smiles),measurement,value
"CC1(C)C(C=C(Cl)Cl)C1C(=O)OC(C#N)c1cccc(Oc2ccccc2)c1 (stereo not drawn) [Solution of α-cypermethrin, α-cypermethrin]",Limits of the efficacy after leaching (EN 84),29-40 g/m^3
